Results: ChEMBL document CHEMBL5291721, “A preclinical secondary pharmacology resource illuminates target-adverse drug reaction associations of marketed drugs” (Nat Commun, 2023)

Assays:
[1] = target: T1, Muscarinic acetylcholine receptor M1 (Homo sapiens, UniProt P11229); type: functional, cell-based
T1 sequence (P11229 whole entry): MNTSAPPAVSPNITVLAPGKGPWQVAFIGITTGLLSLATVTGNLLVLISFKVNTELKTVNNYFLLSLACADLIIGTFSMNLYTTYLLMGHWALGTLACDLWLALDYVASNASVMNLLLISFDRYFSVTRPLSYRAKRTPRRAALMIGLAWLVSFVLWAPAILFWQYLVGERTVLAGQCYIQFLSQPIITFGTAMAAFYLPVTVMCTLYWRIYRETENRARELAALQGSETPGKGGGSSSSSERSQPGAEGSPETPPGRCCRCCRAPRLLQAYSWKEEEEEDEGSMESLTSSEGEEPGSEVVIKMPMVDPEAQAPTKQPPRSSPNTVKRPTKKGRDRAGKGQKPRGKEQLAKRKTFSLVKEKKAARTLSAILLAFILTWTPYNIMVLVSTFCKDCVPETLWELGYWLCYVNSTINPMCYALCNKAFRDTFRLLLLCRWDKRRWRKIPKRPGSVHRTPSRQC

[2] = target: Gamma-aminobutyric acid receptor subunit alpha-1 (Rattus norvegicus, UniProt P62813)
Sequence of Gamma-aminobutyric acid receptor subunit alpha-1 (P62813 whole entry): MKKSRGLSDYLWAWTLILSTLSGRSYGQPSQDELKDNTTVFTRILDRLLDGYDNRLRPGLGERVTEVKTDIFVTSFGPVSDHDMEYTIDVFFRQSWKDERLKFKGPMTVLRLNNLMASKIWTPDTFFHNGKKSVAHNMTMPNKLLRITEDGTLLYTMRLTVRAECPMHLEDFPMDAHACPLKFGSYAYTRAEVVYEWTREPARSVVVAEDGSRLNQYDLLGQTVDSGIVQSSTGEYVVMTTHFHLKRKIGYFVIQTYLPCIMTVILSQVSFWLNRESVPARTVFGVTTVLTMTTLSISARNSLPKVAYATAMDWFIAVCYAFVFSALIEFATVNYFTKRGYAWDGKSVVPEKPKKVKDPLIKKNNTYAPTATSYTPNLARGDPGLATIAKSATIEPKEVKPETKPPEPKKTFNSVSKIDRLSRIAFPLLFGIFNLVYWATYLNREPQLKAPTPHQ

Androgen receptor = target: T2, Androgen receptor (Homo sapiens, UniProt P10275)
T2 sequence (P10275 whole entry): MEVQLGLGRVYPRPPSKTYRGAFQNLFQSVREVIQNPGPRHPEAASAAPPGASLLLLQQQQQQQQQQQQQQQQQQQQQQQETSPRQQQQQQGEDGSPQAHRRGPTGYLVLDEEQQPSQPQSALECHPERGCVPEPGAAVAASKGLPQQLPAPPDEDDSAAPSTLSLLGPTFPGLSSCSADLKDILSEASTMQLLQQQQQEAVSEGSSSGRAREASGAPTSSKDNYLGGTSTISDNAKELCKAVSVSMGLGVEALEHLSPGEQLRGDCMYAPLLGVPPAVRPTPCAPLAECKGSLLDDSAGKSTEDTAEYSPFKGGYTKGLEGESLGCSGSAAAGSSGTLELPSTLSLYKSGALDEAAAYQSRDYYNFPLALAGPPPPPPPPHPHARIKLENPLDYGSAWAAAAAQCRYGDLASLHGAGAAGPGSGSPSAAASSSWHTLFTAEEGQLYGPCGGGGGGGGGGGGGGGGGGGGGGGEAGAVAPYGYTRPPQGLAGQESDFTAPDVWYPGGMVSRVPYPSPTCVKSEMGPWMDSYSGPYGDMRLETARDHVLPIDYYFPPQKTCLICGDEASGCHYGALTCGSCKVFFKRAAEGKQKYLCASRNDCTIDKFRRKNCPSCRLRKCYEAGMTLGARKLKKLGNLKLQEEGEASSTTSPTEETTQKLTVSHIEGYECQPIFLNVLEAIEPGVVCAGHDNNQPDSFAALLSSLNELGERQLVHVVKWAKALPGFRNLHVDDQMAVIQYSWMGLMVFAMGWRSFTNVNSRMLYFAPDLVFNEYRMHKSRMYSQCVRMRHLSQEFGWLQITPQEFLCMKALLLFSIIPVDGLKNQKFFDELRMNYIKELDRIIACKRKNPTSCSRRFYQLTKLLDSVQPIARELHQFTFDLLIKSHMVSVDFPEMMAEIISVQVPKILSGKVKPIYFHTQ

[3] = target: T3, Alpha-2A adrenergic receptor (Homo sapiens, UniProt P08913); type: functional, cell-based
T3 sequence (P08913 whole entry): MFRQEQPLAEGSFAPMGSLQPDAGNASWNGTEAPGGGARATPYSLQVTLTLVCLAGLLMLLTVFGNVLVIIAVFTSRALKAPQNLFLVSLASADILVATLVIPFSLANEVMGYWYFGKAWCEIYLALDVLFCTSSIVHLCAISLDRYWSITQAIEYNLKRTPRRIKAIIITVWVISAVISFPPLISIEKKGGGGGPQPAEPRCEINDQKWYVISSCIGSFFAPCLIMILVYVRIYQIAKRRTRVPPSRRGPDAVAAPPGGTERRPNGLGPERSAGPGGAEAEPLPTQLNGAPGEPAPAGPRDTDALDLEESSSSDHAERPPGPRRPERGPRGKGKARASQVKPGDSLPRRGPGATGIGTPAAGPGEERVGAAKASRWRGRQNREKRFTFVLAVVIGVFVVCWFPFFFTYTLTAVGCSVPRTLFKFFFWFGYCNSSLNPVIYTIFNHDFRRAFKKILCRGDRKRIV

Cannabinoid receptor 1 = Cannabinoid receptor 1 (Homo sapiens, UniProt P21554); type: functional, cell-based
Sequence of Cannabinoid receptor 1 (P21554 whole entry): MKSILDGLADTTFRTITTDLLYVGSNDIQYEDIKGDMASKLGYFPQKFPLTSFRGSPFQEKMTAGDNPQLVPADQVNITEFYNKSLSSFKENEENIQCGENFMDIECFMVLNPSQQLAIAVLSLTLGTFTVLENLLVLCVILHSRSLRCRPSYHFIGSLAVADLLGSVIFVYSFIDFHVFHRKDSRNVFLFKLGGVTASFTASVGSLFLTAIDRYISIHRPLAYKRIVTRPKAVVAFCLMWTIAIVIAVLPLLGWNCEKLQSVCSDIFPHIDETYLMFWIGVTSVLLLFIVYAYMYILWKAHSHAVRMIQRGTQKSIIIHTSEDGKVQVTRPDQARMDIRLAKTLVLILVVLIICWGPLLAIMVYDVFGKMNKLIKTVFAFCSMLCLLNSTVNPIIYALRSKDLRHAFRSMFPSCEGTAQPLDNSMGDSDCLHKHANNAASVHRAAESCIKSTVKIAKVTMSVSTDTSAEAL

[4] = target: Sodium-dependent noradrenaline transporter (Homo sapiens, UniProt P23975)
Sequence of Sodium-dependent noradrenaline transporter (P23975 whole entry): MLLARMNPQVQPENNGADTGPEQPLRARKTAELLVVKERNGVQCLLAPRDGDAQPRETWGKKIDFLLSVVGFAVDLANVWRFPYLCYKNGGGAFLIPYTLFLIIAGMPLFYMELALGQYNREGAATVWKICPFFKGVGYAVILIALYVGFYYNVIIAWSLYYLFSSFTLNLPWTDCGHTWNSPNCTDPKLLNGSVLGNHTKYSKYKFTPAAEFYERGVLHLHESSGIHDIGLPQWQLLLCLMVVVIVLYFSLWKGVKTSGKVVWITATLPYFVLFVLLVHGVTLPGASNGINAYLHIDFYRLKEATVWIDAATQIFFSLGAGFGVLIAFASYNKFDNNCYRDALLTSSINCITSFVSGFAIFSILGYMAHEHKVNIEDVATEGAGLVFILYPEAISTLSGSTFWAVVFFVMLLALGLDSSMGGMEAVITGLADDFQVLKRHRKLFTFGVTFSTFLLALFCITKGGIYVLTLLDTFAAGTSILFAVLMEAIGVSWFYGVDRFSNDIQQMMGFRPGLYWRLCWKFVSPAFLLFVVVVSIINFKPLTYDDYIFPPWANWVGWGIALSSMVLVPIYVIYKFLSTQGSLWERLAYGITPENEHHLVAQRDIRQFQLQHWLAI

[5] = target: T4, Muscarinic acetylcholine receptor M2 (Homo sapiens, UniProt P08172); type: functional, cell-based
T4 sequence (P08172 whole entry): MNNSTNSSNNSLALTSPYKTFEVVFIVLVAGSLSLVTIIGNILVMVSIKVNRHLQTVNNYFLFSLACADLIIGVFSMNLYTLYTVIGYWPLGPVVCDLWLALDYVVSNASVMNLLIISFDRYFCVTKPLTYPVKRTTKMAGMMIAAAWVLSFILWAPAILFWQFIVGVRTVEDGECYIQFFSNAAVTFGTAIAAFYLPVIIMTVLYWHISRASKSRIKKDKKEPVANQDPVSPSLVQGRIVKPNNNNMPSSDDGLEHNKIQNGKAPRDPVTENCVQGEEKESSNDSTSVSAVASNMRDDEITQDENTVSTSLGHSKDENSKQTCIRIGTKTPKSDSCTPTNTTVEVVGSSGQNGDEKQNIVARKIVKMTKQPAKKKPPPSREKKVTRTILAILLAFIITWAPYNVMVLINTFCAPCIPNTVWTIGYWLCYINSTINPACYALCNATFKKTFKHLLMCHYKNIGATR

[6] = target: T5, Equilibrative nucleoside transporter 1 (Homo sapiens, UniProt Q99808)
T5 sequence (Q99808 whole entry): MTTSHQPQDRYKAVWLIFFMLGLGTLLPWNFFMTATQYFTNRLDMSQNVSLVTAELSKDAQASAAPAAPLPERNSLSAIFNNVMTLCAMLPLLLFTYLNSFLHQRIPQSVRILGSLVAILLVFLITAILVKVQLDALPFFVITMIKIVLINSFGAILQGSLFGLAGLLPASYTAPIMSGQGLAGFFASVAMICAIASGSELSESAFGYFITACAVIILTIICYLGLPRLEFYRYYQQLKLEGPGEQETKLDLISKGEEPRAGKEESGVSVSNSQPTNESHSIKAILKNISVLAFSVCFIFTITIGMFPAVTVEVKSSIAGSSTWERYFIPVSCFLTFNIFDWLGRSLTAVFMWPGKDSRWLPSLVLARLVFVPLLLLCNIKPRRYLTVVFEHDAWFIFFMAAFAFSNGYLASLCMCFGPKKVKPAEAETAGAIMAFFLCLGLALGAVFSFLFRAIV
Note: assay procedure not described here.

Row | Structure (SMILES) | AC50 [1] | AC50 [2] | AC50 (Androgen receptor) | AC50 [3] | AC50 (Cannabinoid receptor 1) | AC50 [4] | AC50 [5] | AC50 [6]
1 | CC[C@@H]1C[C@]1(NC(=O)[C@@H]1C[C@@H]2CN1C(=O)[C@H](C(C)(C)C)NC(=O)OCC(C)(C)CCCCc1cccc3c1CN(C3)C(=O)O2)C(=O)NS(=O)(=O)C1CC1 | > 3 µM | > 30 µM | > 30 µM |  |  |  |  | 
2 | CC(=O)NO [ACETOHYDROXAMIC ACID] | > 30 µM | > 30 µM | > 30 µM |  |  |  |  | 
3 | C=C(C)CNc1ccc(C(C)C(=O)O)cc1 (centres undefined) [ALMINOPROFEN] | > 30 µM |  | > 30 µM |  |  |  |  | 
4 | C[C@H]1CN(C[C@H](Cc2ccccc2)C(=O)NCC(=O)O)CC[C@@]1(C)c1cccc(O)c1 [ALVIMOPAN] | > 30 µM |  | > 30 µM |  |  |  |  | 
5 | CC(C)NC(=N)NC(=N)Nc1ccc(Cl)c(Cl)c1 [CHLORPROGUANIL] |  | > 30 µM | > 30 µM | > 30 µM | > 30 µM |  |  | 
6 | C[C@H]1O[C@@H](O[C@H]2CC[C@@]3(C)[C@H](CC[C@@H]4[C@@H]3C[C@@H](O)[C@]3(C)[C@@H](C5=CC(=O)OC5)CC[C@]43O)C2)C[C@H](O)[C@@H]1O[C@H]1C[C@H](O)[C@H](O[C@H]2C[C@H](O)[C@H](O[C@@H]3O[C@H](CO)[C@@H](O)[C@H](O)[C@H]3O)[C@@H](C)O2)[C@@H](C)O1 [DESLANOSIDE] | > 30 µM |  | > 30 µM |  |  |  |  | 
7 | O=C(O)Cc1ccccc1Nc1c(Cl)cccc1Cl [DICLOFENAC] |  |  | > 3 µM | > 10 µM | > 30 µM | > 30 µM | > 10 µM | > 30 µM
8 | CN[C@@H]1[C@H](O[C@H]2[C@H](O[C@H]3[C@H](O)[C@@H](O)[C@H](NC(=N)N)[C@@H](O)[C@@H]3NC(=N)N)O[C@@H](C)[C@]2(O)CO)O[C@@H](CO)[C@H](O)[C@H]1O [DIHYDROSTREPTOMYCIN] |  | > 30 µM | > 30 µM |  |  |  |  | 
9 | CC[C@H]1OC(=O)[C@H](C)[C@@H](O[C@H]2C[C@@](C)(OC)[C@@H](O)[C@H](C)O2)[C@H](C)[C@@H](O[C@@H]2O[C@H](C)C[C@H](N(C)C)[C@H]2O)[C@](C)(O)C[C@@H](C)[C@@H]2N[C@@H](COCCOC)O[C@H]([C@H]2C)[C@]1(C)O [DIRITHROMYCIN] | > 30 µM | > 30 µM |  |  |  |  |  | 
10 | CCCCc1oc2ccc(NS(C)(=O)=O)cc2c1C(=O)c1ccc(OCCCN(CCCC)CCCC)cc1 [DRONEDARONE] | 7.76 µM | > 30 µM |  |  |  |  |  | 
11 | O=C(O)Cc1ccccc1Oc1ccc(Cl)cc1Cl [FENCLOFENAC] | 23.6 µM | > 30 µM |  | > 10 µM | > 30 µM | > 10 µM | > 10 µM | > 30 µM
12 | CC(C)C(=O)Oc1ccc(CO)cc1[C@H](CCN(C(C)C)C(C)C)c1ccccc1 [FESOTERODINE] | 0.354 µM | > 30 µM | > 30 µM |  |  |  |  | 
13 | Cc1ccc(C)c(OCCCC(C)(C)C(=O)O)c1 [GEMFIBROZIL] |  | > 30 µM | > 30 µM | > 10 µM | > 30 µM | > 10 µM | > 10 µM | > 30 µM
14 | C#C[C@]1(O)C=C[C@H]2[C@@H]3CCC4=CC(=O)CC[C@@H]4[C@H]3CC[C@@]21CC [GESTODENE] |  | 2.16 µM | 0.003 µM |  |  |  |  | 
15 | N=C(N)N/N=C/c1c(Cl)cccc1Cl [GUANABENZ] |  |  | > 30 µM |  |  |  |  | 
16 | C[N+](C)(CCCCCC[N+](C)(C)C1c2ccccc2-c2ccccc21)C1c2ccccc2-c2ccccc21 [HEXAFLUORENIUM] | 7.41 µM | > 30 µM |  |  |  |  |  | 

Row | Structure (SMILES) | AC50 [1] | AC50 [2] | AC50 (Androgen receptor) | AC50 [3] | AC50 (Cannabinoid receptor 1) | AC50 [4] | AC50 [5] | AC50 [6]
17 | CCCCC(CC)CN1CN(CC(CC)CCCC)CC(C)(N)C1 (centres undefined) [HEXETIDINE] | 9.85 µM | > 30 µM | > 30 µM |  |  |  |  | 
18 | Cc1cc(=O)oc2cc(O)ccc12 [HYMECROMONE] | > 30 µM | > 30 µM |  |  |  |  |  | 
19 | COc1cc(C(C)=O)ccc1OCCCN1CCC(c2noc3cc(F)ccc23)CC1 [ILOPERIDONE] | > 10 µM | > 30 µM |  | > 30 µM | > 30 µM | 1.63 µM | > 30 µM | > 30 µM
20 | COc1c2occc2c(OC)c2c(=O)cc(C)oc12 [KHELLIN] | > 30 µM | > 30 µM |  |  |  |  |  | 
21 | CC(C)[C@@H]1CC[C@@H](C)C[C@H]1O [LEVOMENTHOL] | > 30 µM |  | > 30 µM |  |  |  |  | 
22 | C=N[C@@H](C(=O)N[C@@H]1C(=O)N2[C@@H]1SC(C)(C)[C@@H]2C(=O)O)c1ccccc1 [METAMPICILLIN] | > 30 µM | > 30 µM |  |  |  |  |  | 
23 | O=C(NNCS(=O)(=O)O)c1ccncc1 [METHANIAZIDE] | > 30 µM | > 30 µM |  |  |  |  |  | 
24 | Cc1cc(=O)[nH]c(=S)[nH]1 [METHYLTHIOURACIL] | > 30 µM | > 30 µM |  |  |  |  |  | 
25 | CN(C)c1ccc(O)c2c1C[C@H]1C[C@H]3[C@H](N(C)C)C(O)=C(C(N)=O)C(=O)[C@@]3(O)C(O)=C1C2=O [MINOCYCLINE] | > 30 µM |  | > 30 µM |  |  |  |  | 
26 | CCNC(=O)/C=C(C)/C=C/C=C(C)/C=C/c1c(C)cc(OC)c(C)c1C [MOTRETINIDE] | 16.6 µM |  | > 30 µM |  |  |  |  | 
27 | O=C(O)CN(CCN(CC(=O)O)CC(=O)O)CCN(CC(=O)O)CC(=O)O [PENTETIC ACID] | > 30 µM | > 30 µM |  |  |  |  |  | 
28 | C[Se]CC[C@H](N)C(=O)O [SELENOMETHIONINE] | > 30 µM | > 30 µM |  |  |  |  |  | 
29 | Cc1ccsc1C(=CCCN1CCC[C@@H](C(=O)O)C1)c1sccc1C [TIAGABINE] | > 30 µM |  | > 30 µM |  |  |  |  | 
30 | Cc1ccc(C(=O)c2ccc(CC(=O)O)n2C)cc1 [TOLMETIN] |  |  | > 30 µM |  |  |  |  | 
31 | O=C1Cc2cc(CCN3CCN(c4nsc5ccccc45)CC3)c(Cl)cc2N1 [ZIPRASIDONE] | 12.9 µM | > 30 µM |  |  | > 30 µM | 0.89 µM | > 10 µM | > 30 µM
